Measurements: patent US20080009418A1, “Selective Inhibitors” (Alchemia LTD., priority 2004, published 2008)

Columns and labels:
[1] = molecular target: T1, Human δ-opioid (DOP) (Homo sapiens, UniProt P41143); test: Radioligand binding, human δ-opioid (DOP) membranes, FlashPlate, [3H]-Bremazocine; details: compound at 10 μM; for A1 radioligand binding inhibition: human δ-opioid (DOP) membranes
T1 construct: purchased Perkin Elmer Biosignal
Outline: (§1)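 Cloned human receptor membranes were coated onto FlashPlate wells and incubated with radioligand and compound (added from a 0.5 mM DMSO daughter plate) for 1 hour at room temperature in the dark. Scintillation counting gave percent inhibition, with DMSO defining total and reference ligand defining non-specific binding.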

[2] = molecular target: T2, Human κ-Opioid (KOP) (Homo sapiens, UniProt P41145); test: Radioligand binding, human κ-opioid (KOP) membranes, filtration, [3H]-Diprenorphine; details: compound at 10 μM; for A2 radioligand binding inhibition: human κ-opioid (KOP) membranes
T2 construct: purchased Perkin Elmer Biosignal
T2 sequence (P41145 whole entry): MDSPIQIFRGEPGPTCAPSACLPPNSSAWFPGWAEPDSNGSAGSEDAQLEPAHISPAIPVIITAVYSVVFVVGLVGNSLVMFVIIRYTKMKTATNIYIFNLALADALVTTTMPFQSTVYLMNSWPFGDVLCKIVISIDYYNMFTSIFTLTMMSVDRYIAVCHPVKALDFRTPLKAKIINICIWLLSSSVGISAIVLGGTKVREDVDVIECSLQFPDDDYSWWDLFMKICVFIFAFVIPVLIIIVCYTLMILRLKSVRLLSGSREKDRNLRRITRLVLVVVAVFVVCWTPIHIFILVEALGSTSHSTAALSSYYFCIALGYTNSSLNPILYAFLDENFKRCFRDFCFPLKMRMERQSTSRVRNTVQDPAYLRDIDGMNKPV
Outline: (§2)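 Membranes from cloned human receptors were incubated with compound and radioligand for 1 hour at room temperature. Bound ligand was collected on 0.3% PEI-soaked filters, washed with cold 50 mM Tris-HCl pH 7.4, and counted by scintillation. Percent inhibition was computed against DMSO totals and reference-ligand nonspecific wells.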

[3] = molecular target: T3, Human Melanocortin (MC3) (Homo sapiens, UniProt P41968); test: Radioligand binding, human melanocortin MC3 membranes, FlashPlate, [125I]-NDP-αMSH; details: compound at 10 μM; for A3 radioligand binding inhibition: human melanocortin MC3 membranes
T3 construct: purchased Perkin Elmer Biosignal
T3 sequence (P41968 whole entry): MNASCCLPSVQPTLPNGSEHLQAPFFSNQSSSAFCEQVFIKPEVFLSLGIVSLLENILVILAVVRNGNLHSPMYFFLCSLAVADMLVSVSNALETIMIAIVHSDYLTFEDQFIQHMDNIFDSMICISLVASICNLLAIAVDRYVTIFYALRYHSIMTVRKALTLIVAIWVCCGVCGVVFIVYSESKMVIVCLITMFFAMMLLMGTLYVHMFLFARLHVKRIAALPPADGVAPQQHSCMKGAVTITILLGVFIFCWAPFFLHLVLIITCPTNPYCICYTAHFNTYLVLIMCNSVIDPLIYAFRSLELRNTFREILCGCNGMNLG
Outline: as §1

[4] = molecular target: T4, Human Melanocortin (MC4) (Homo sapiens, UniProt P32245); test: Radioligand binding, human melanocortin MC4 membranes, FlashPlate, [125I]-NDP-αMSH; details: compound at 10 μM; for A4 radioligand binding inhibition: human melanocortin MC4 membranes
T4 construct: purchased Perkin Elmer Biosignal
T4 sequence (P32245 whole entry): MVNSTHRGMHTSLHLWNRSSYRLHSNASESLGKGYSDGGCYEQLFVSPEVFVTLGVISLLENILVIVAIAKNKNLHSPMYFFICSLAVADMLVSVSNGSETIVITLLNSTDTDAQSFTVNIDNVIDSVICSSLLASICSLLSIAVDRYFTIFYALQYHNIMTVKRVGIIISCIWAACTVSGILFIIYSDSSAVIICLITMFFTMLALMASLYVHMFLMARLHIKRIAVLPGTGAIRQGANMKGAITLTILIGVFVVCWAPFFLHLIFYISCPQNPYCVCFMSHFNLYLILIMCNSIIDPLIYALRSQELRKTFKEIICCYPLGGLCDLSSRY
Outline: as §1

[5] = molecular target: T5, Human melanocortin (MC5) (Homo sapiens, UniProt P33032); test: Radioligand binding, human melanocortin MC5 membranes, FlashPlate, [125I]-NDP-αMSH; details: compound at 10 μM; for A5 radioligand binding inhibition: human melanocortin MC5 membranes
T5 construct: purchased Perkin Elmer Biosignal
T5 sequence (P33032 whole entry): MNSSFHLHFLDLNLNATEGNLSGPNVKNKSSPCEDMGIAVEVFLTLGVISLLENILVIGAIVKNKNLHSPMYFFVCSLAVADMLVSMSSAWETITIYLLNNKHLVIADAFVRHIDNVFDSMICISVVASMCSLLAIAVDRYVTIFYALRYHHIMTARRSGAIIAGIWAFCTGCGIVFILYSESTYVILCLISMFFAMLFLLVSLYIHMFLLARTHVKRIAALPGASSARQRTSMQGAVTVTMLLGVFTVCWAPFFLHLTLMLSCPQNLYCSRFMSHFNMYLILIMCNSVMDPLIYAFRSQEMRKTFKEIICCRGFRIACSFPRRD
Outline: as §1

[6] = molecular target: T6, Human melanin-concentrating hormone (MCH1) (Homo sapiens, UniProt Q99705); test: Radioligand binding, human melanin-concentrating hormone MCH1 membranes, FlashPlate, [125I]-S36057; details: compound at 10 μM; for A6 radioligand binding inhibition: human MCH1 membranes
T6 construct: purchased Perkin Elmer Biosignal
T6 sequence (Q99705 whole entry): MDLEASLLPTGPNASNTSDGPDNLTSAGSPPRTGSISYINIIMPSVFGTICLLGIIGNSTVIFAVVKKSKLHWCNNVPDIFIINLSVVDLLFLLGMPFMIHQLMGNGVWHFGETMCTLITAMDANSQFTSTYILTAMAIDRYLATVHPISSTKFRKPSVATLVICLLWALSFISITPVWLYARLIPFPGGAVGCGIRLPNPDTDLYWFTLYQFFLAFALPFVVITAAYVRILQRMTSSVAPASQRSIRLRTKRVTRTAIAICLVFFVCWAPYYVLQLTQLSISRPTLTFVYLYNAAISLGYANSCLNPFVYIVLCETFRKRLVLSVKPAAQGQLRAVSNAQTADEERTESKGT
Outline: as §1

[7] = molecular target: T7, Human μ-opioid (MOP) (Homo sapiens, UniProt P35372); test: Radioligand binding, human μ-opioid (MOP) membranes, FlashPlate, [3H]-Naloxone; details: compound at 10 μM; for A7 radioligand binding inhibition: human μ-opioid (MOP) membranes
T7 construct: purchased Perkin Elmer Biosignal
T7 sequence (P35372 whole entry): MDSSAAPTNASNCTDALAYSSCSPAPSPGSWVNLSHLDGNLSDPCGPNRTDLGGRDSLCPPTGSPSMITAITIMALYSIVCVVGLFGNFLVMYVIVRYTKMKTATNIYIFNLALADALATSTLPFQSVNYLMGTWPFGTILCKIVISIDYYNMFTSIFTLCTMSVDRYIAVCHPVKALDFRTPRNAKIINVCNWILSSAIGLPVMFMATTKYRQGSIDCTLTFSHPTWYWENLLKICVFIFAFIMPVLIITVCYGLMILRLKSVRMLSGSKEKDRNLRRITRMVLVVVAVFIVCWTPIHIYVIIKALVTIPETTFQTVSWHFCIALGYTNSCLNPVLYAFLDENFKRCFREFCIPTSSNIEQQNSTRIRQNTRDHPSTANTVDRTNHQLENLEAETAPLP
Outline: as §1

[8] = molecular target: T8, Human neurokinin (NK1) (Homo sapiens, UniProt P25103); test: Radioligand binding, human neurokinin NK1 membranes, filtration, [125I]-Substance P; details: compound at 10 μM; for A8 radioligand binding inhibition: human neurokinin NK1 membranes
T8 construct: purchased Perkin Elmer Biosignal
T8 sequence (P25103 whole entry): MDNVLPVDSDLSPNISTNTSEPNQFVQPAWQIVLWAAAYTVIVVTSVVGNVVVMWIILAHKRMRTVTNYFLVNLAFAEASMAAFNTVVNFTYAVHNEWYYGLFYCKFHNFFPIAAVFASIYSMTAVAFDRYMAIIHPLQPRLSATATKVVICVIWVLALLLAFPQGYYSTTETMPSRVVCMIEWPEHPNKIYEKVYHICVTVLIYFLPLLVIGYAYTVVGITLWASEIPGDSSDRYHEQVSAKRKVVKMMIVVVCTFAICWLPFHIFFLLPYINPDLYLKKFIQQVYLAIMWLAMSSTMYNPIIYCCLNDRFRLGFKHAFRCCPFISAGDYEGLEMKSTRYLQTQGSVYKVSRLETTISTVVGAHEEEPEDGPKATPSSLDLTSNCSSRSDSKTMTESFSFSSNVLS
Outline: as §2

[9] = molecular target: T9, Human neuropeptide Y (NPY-Y1) (Homo sapiens, UniProt P25929); test: Radioligand binding, human neuropeptide Y NPY-Y1 membranes, FlashPlate, [125I]-PYY; details: compound at 10 μM
T9 construct: purchased Perkin Elmer Biosignal
T9 sequence (P25929 1-384): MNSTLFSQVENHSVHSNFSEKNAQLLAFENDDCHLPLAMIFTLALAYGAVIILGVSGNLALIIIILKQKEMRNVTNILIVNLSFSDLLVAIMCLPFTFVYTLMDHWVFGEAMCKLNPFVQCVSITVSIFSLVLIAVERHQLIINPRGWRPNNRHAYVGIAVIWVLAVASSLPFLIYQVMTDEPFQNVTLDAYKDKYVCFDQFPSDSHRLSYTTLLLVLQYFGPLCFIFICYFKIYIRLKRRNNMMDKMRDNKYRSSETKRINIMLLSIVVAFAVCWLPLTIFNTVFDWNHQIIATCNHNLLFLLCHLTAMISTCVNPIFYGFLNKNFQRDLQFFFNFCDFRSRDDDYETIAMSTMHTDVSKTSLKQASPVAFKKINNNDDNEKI
Outline: as §1

[10] = molecular target: T10, Human opioid (ORL1) (Homo sapiens, UniProt P41146); test: Radioligand binding, human opioid ORL1 membranes, FlashPlate, [125I]-Nociceptin; details: compound at 10 μM
T10 construct: purchased Perkin Elmer Biosignal
T10 sequence (P41146 whole entry): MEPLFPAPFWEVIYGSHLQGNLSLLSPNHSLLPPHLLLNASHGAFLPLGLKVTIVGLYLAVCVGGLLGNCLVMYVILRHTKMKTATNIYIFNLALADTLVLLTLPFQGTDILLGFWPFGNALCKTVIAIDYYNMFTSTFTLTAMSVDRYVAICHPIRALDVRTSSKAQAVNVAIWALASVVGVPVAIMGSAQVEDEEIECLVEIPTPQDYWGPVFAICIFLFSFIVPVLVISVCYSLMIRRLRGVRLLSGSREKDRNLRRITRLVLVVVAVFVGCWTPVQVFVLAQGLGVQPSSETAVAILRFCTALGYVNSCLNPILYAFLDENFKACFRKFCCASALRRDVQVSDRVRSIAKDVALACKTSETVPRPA
Outline: as §1

[11] = molecular target: T11, Mouse urotensin (mUR2) (Mus musculus, UniProt Q8VIH9); test: Radioligand binding, mouse urotensin mUR2 membranes, FlashPlate, [125I]-Urotensin II; details: compound at 10 μM; for A11 radioligand binding inhibition: mouse urotensin mUR2 membranes
T11 construct: purchased Perkin Elmer Biosignal
T11 sequence (Q8VIH9 1-385): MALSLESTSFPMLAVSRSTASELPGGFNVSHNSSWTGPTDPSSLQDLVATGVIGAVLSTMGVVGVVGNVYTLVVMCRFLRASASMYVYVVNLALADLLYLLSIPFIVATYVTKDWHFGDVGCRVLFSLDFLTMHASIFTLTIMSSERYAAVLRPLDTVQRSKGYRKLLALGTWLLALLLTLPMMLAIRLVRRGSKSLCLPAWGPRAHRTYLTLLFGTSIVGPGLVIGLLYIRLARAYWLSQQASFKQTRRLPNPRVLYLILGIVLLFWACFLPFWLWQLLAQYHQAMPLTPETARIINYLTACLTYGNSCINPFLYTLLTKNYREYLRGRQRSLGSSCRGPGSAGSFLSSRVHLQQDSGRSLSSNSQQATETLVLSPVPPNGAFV
Outline: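 Cloned mouse urotensin (mUR2) receptor membranes from Perkin Elmer Biosignal were immobilized in FlashPlate microplates using a proprietary coating. Each well got 19.5 μl buffer, then 0.5 μl of DMSO, reference ligand, or compound. Adding 5 μl of [125I]-Urotensin II, diluted to 5× final concentration in binding buffer, started binding. Plates were sealed with TopSeal-A and incubated 1 hour at room temperature in the dark. Wells were counted for 30 seconds each on a TopCount after a 60-second delay, and percentage inhibition was calculated.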

T1 sequence (P41143 whole entry): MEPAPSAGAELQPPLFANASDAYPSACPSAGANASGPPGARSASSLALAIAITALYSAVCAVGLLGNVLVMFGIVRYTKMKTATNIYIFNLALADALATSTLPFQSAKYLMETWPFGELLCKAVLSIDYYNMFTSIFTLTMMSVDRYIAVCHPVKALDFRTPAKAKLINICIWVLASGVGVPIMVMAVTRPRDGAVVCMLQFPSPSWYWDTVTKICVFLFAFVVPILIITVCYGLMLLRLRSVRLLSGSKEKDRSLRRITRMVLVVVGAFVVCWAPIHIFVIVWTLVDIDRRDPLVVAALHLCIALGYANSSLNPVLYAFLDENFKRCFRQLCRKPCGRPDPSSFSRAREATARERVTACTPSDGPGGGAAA

| SMILES | A1 radioligand binding inhibition [1] | A2 radioligand binding inhibition [2] | A3 radioligand binding inhibition [3] | A4 radioligand binding inhibition [4] | A5 radioligand binding inhibition [5] | A6 radioligand binding inhibition [6] | A7 radioligand binding inhibition [7] | A8 radioligand binding inhibition [8] | A9 radioligand binding inhibition ([9]; human NPY-Y1 membranes) | A10 radioligand binding inhibition ([10]; human ORL1 membranes) | A11 radioligand binding inhibition [11] | further results |
| --- | --- | --- | --- | --- | --- | --- | --- | --- | --- | --- | --- | --- |
| N=C(N)NCC(=O)NC1C(OCc2ccc(Cl)cc2)OC(COCc2ccc(Cl)cc2)C(O)C1OCc1ccc(Cl)cc1 (stereo not shown) [compound 419] | – | – | – | – | – | – | – | – | – | – | – | A1: inhibition of radioligand binding ([1]; [3H]-Bremazocine, human DOP membranes): − (“−” indicates less than 50% inhibition at 10 μM); A2: inhibition of radioligand binding ([2]; [3H]-Diprenorphine, human KOP membranes): − (“−” indicates less than 50% inhibition at 10 μM); A3: inhibition of radioligand binding ([3]; [125I]-NDP-αMSH, human MC3 membranes): + (“+” indicates greater than 50% inhibition at 10 μM); A4: inhibition of radioligand binding ([4]; [125I]-NDP-αMSH, human MC4 membranes): + (“+” indicates greater than 50% inhibition at 10 μM); A5: inhibition of radioligand binding ([5]; [125I]-NDP-αMSH, human MC5 membranes): + (“+” indicates greater than 50% inhibition at 10 μM); A6: inhibition of radioligand binding ([6]; [125I]-S36057, human MCH1 membranes): + (“+” indicates greater than 50% inhibition at 10 μM); A7: inhibition of radioligand binding ([7]; [3H]-Naloxone, human MOP membranes): − (“−” indicates less than 50% inhibition at 10 μM); A8: inhibition of radioligand binding ([8]; [125I]-Substance P, human NK1 membranes): + (“+” indicates greater than 50% inhibition at 10 μM); A9: inhibition of radioligand binding ([9]; [125I]-PYY, human NPY-Y1 membranes): − (“−” indicates less than 50% inhibition at 10 μM); A10: inhibition of radioligand binding ([10]; [125I]-Nociceptin, human ORL1 membranes): + (“+” indicates greater than 50% inhibition at 10 μM); A11: inhibition of radioligand binding ([11]; [125I]-Urotensin II, mouse mUR2 membranes): − (“−” indicates less than 50% inhibition at 10 μM) |
| COC[C@H]1OC(OCc2ccc(Cl)cc2)[C@H](NC(=O)CCNC(=N)N)[C@@H](OCc2ccc3ccccc3c2)[C@@H]1O (stereo partly shown) [compound 32] | + (“+” indicates greater than 50% inhibition at 10 μM) | − (“−” indicates less than 50% inhibition at 10 μM) | − (“−” indicates less than 50% inhibition at 10 μM) | − (“−” indicates less than 50% inhibition at 10 μM) | + (“+” indicates greater than 50% inhibition at 10 μM) | − (“−” indicates less than 50% inhibition at 10 μM) | − (“−” indicates less than 50% inhibition at 10 μM) | + (“+” indicates greater than 50% inhibition at 10 μM) | − (“−” indicates less than 50% inhibition at 10 μM) | − (“−” indicates less than 50% inhibition at 10 μM) | − (“−” indicates less than 50% inhibition at 10 μM) | – |
| CO[C@H]1[C@H](O)[C@@H](COCc2ccc3ccccc3c2)OC(OCc2cccc(O)c2)[C@@H]1NC(=O)CCNC(=N)N (stereo partly shown) [compound 166] | – | – | – | – | – | – | – | – | – | – | – | A1 radioligand binding, percentage inhibition ([1]; [3H]-Bremazocine): − (“−” indicates less than 50% inhibition at 10 μM); A2 radioligand binding, percentage inhibition ([2]; [3H]-Diprenorphine): − (“−” indicates less than 50% inhibition at 10 μM); A3 radioligand binding, percentage inhibition ([3]; [125I]-NDP-αMSH): − (“−” indicates less than 50% inhibition at 10 μM); A4 radioligand binding, percentage inhibition ([4]; [125I]-NDP-αMSH): + (“+” indicates greater than 50% inhibition at 10 μM); A5 radioligand binding, percentage inhibition ([5]; [125I]-NDP-αMSH): + (“+” indicates greater than 50% inhibition at 10 μM); A6 radioligand binding, percentage inhibition ([6]; [125I]-S36057): − (“−” indicates less than 50% inhibition at 10 μM); A7 radioligand binding, percentage inhibition ([7]; [3H]-Naloxone): − (“−” indicates less than 50% inhibition at 10 μM); A8 radioligand binding, percentage inhibition ([8]; [125I]-Substance P): + (“+” indicates greater than 50% inhibition at 10 μM); A9 radioligand binding, percentage inhibition ([9]; [125I]-PYY): − (“−” indicates less than 50% inhibition at 10 μM); A10 radioligand binding, percentage inhibition ([10]; [125I]-Nociceptin): − (“−” indicates less than 50% inhibition at 10 μM); A11 radioligand binding, percentage inhibition ([11]; [125I]-Urotensin II): − (“−” indicates less than 50% inhibition at 10 μM) |
| COC[C@H]1OC(OCCc2ccccc2)[C@H](NC(=O)CCNC(=N)N)[C@@H](OCc2ccc(Cl)cc2)[C@@H]1O (stereo partly shown) [compound 49] | − (“−” indicates less than 50% inhibition at 10 μM) | − (“−” indicates less than 50% inhibition at 10 μM) | − (“−” indicates less than 50% inhibition at 10 μM) | + (“+” indicates greater than 50% inhibition at 10 μM) | − (“−” indicates less than 50% inhibition at 10 μM) | − (“−” indicates less than 50% inhibition at 10 μM) | − (“−” indicates less than 50% inhibition at 10 μM) | + (“+” indicates greater than 50% inhibition at 10 μM) | − (“−” indicates less than 50% inhibition at 10 μM) | − (“−” indicates less than 50% inhibition at 10 μM) | − (“−” indicates less than 50% inhibition at 10 μM) | – |
| COC[C@H]1OC(OCc2ccc3ccccc3c2)[C@H](NC(=O)CNC(=N)N)[C@@H](OCc2ccc3ccccc3c2)[C@@H]1O (stereo partly shown) [compound 17] | − (“−” indicates less than 50% inhibition at 10 μM) | − (“−” indicates less than 50% inhibition at 10 μM) | − (“−” indicates less than 50% inhibition at 10 μM) | + (“+” indicates greater than 50% inhibition at 10 μM) | + (“+” indicates greater than 50% inhibition at 10 μM) | + (“+” indicates greater than 50% inhibition at 10 μM) | + (“+” indicates greater than 50% inhibition at 10 μM) | + (“+” indicates greater than 50% inhibition at 10 μM) | − (“−” indicates less than 50% inhibition at 10 μM) | − (“−” indicates less than 50% inhibition at 10 μM) | − (“−” indicates less than 50% inhibition at 10 μM) | – |
